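Method: 48-hour compound exposure of cells in 96-well plates, five concentrations, linear interpolation of endpoints. GI50 is the concentration that inhibits growth by half.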 The source made the active and inactive calls. No stated cut-off is given here; in the data, active = GI50 up to about 1.1 µM and inactive = higher.
What was measured:
Assay in all cases: growth of human tumour cells (NCI), 48 h
786-0 = tested on: 786-0
Hs-578T = tested on: Hs-578T
IGROV-1 = tested on: IGROV-1
KM12 = tested on: KM12
M14 = tested on: M14
NCI-H226 = tested on: NCI-H226
NCI-H460 = tested on: NCI-H460
NCI-H522 = tested on: NCI-H522
NCI/ADR-RES = tested on: NCI/ADR-RES
PC-3 = tested on: PC-3
SF-268 = tested on: SF-268
SF-295 = tested on: SF-295
SK-MEL-28 = tested on: SK-MEL-28
SK-MEL-2 = tested on: SK-MEL-2
SN12C = tested on: SN12C
TK-10 = tested on: TK-10
UACC-257 = tested on: UACC-257
UACC-62 = tested on: UACC-62
EKVX = tested on: EKVX
SNB-19 = tested on: SNB-19

SMILES	GI50 (786-0)	GI50 (Hs-578T)	GI50 (IGROV-1)	GI50 (KM12)	GI50 (M14)	GI50 (NCI-H226)	GI50 (NCI-H460)	GI50 (NCI-H522)	GI50 (NCI/ADR-RES)	GI50 (PC-3)	GI50 (SF-268)	GI50 (SF-295)	GI50 (SK-MEL-28)	GI50 (SK-MEL-2)	GI50 (SN12C)	GI50 (TK-10)	GI50 (UACC-257)	GI50 (UACC-62)	GI50 (EKVX)	GI50 (SNB-19)
CC(=O)N1N=C(c2c(O)ccc3ccccc23)CC1c1ccc(Cl)cc1 (configuration not stated)	27.1 µM (inactive)	17.1 µM (inactive)	12.4 µM (inactive)	13.7 µM (inactive)	14.2 µM (inactive)	40 µM (inactive)	15.1 µM (inactive)	22.9 µM (inactive)	14.5 µM (inactive)	17 µM (inactive)	26.3 µM (inactive)	19.9 µM (inactive)	27.4 µM (inactive)	17.5 µM (inactive)	18.7 µM (inactive)	30.1 µM (inactive)	27.9 µM (inactive)	14.1 µM (inactive)	–	–
C/C(=N\NC(=S)N1CCCCCC1)c1cccc2cccnc12	2.01 µM (inactive)	19.7 µM (inactive)	1.86 µM (inactive)	1.42 µM (inactive)	1.55 µM (inactive)	0.589 µM (active)	0.681 µM (active)	0.193 µM (active)	1.03 µM (active)	3.81 µM (inactive)	4.29 µM (inactive)	0.271 µM (active)	1.77 µM (inactive)	19.5 µM (inactive)	–	2.48 µM (inactive)	2.58 µM (inactive)	–	1.29 µM (inactive)	1.76 µM (inactive)
N#Cc1ccc(C(O)C(F)(F)c2nc3ccccc3o2)cc1 (configuration not stated)	84.1 µM (inactive)	> 100 µM (inactive)	95.5 µM (inactive)	96.2 µM (inactive)	55.2 µM (inactive)	32.9 µM (inactive)	> 100 µM (inactive)	–	60.5 µM (inactive)	33.1 µM (inactive)	> 100 µM (inactive)	41.8 µM (inactive)	> 100 µM (inactive)	> 100 µM (inactive)	–	> 100 µM (inactive)	99.8 µM (inactive)	40.9 µM (inactive)	> 100 µM (inactive)	> 100 µM (inactive)
COC(=O)c1c(C(=O)OC)c2c3ccccc3n(C)c2c2c1c1ccccc1n2C	34.2 µM (inactive)	> 100 µM (inactive)	16.9 µM (inactive)	> 100 µM (inactive)	> 100 µM (inactive)	> 100 µM (inactive)	> 100 µM (inactive)	58.1 µM (inactive)	> 100 µM (inactive)	54.6 µM (inactive)	–	91.4 µM (inactive)	> 100 µM (inactive)	46.8 µM (inactive)	> 100 µM (inactive)	> 100 µM (inactive)	> 100 µM (inactive)	> 100 µM (inactive)	47.1 µM (inactive)	27.6 µM (inactive)
O=C(NN1C(=O)C(Cl)C1c1ccc(Cl)cc1)c1c(Cl)c(Cl)c(Cl)c(Cl)c1-c1nc2ccccc2[nH]1 (configuration not stated)	16.5 µM (inactive)	41.5 µM (inactive)	3.61 µM (inactive)	31.4 µM (inactive)	20.8 µM (inactive)	22.1 µM (inactive)	16.7 µM (inactive)	13.8 µM (inactive)	33 µM (inactive)	25.6 µM (inactive)	25.8 µM (inactive)	23.9 µM (inactive)	16.9 µM (inactive)	21.8 µM (inactive)	23 µM (inactive)	–	25.2 µM (inactive)	15.7 µM (inactive)	20.7 µM (inactive)	36.1 µM (inactive)
CN(C)c1n/c(=N/Cc2ccccn2)ss1	> 4.16 µM (inactive)	> 10 µM (inactive)	> 10 µM (inactive)	> 9.57 µM (inactive)	> 8.89 µM (inactive)	> 10 µM (inactive)	> 10 µM (inactive)	–	> 10 µM (inactive)	> 10 µM (inactive)	> 10 µM (inactive)	> 10 µM (inactive)	> 10 µM (inactive)	–	9.77 µM (inactive)	> 10 µM (inactive)	> 10 µM (inactive)	> 10 µM (inactive)	> 10 µM (inactive)	> 10 µM (inactive)
O=CN(O)CC(=O)O	> 100 µM (inactive)	> 100 µM (inactive)	> 100 µM (inactive)	> 100 µM (inactive)	> 100 µM (inactive)	> 100 µM (inactive)	> 100 µM (inactive)	–	> 100 µM (inactive)	> 100 µM (inactive)	> 100 µM (inactive)	> 100 µM (inactive)	> 100 µM (inactive)	> 100 µM (inactive)	> 100 µM (inactive)	> 100 µM (inactive)	> 100 µM (inactive)	> 100 µM (inactive)	> 100 µM (inactive)	> 100 µM (inactive)
CN(C)Cc1cc(C(=O)/C=C/c2ccccc2)cc(CN(C)C)c1O	30.1 µM (inactive)	36.1 µM (inactive)	31.9 µM (inactive)	18.6 µM (inactive)	20.7 µM (inactive)	27.9 µM (inactive)	15.9 µM (inactive)	19.5 µM (inactive)	26.5 µM (inactive)	12.6 µM (inactive)	32.5 µM (inactive)	15.5 µM (inactive)	20.6 µM (inactive)	–	11.7 µM (inactive)	37.3 µM (inactive)	13.3 µM (inactive)	–	33.6 µM (inactive)	29.1 µM (inactive)

Reference: ChEMBL document CHEMBL1201862, “PubChem BioAssay data set” (2004)
